Experimental data reported in US10040805B2, “Substituted imidazo[1,5-a]pyrazines as Btk inhibitors” (MERCK SHARP & DOHME CORP., priority 2014, dated 2018).

What follows are compounds tested against BTK enzyme (full-length BTK, hBTK) (Homo sapiens (Human), UniProt Q06187) (assay: Btk enzyme activity assay, LANCE TR-FRET). Settings: 50 pM hBTK, 2 μM biotin-A5-peptide, 25 μM ATP, 60 minute compound & enzyme incubation, read-out: BTK binding IC50.
Chain of BTK enzyme (full-length BTK, hBTK) (Q06187 whole entry): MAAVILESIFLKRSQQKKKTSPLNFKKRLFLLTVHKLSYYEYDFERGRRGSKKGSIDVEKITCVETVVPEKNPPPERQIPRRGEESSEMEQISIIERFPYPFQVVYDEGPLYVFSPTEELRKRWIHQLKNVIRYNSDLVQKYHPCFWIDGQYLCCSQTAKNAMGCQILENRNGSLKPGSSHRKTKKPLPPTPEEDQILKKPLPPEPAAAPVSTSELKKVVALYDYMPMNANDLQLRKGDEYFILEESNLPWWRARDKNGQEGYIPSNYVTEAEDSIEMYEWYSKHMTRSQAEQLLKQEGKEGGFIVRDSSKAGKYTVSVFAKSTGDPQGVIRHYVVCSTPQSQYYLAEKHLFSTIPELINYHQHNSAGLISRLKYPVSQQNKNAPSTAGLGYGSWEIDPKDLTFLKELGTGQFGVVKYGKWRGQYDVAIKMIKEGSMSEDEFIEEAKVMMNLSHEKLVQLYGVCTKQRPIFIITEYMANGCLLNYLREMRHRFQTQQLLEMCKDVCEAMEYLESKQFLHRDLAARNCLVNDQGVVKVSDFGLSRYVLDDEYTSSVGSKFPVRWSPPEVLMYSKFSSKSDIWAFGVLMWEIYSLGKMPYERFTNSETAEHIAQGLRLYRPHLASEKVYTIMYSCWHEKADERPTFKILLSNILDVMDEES
Format: biochemical
Description: BTK enzymatic activity was determined with the LANCE (Lanthanide Chelate Excite) TR-FRET (Time-resolved fluorescence resonance energy transfer) assay. In this assay, the potency (IC50) of each compound was determined from an eleven point (1:3 serial dilution; final compound concentration range in assay from 1 μM to 0.017 nM) titration curve using the following outlined procedure. To each well of a black non-binding surface Corning 384-well microplate (Corning Catalog #3820), 5 nL of compound (2000 fold dilution in final assay volume of 10 μL) was dispensed, followed by the addition of 7.5 μL of 1× kinase buffer (50 mM Hepes 7.5, 10 mM MgCl2, 0.01% Brij-35, 1 mM EGTA, 0.05% BSA & 1 mM DTT) containing 5.09 pg/μL (66.67 pM) of BTK enzyme (recombinant protein from baculovirus-transfected Sf9 cells: full-length BTK, 6HIS-tag cleaved). Following a 60 minute compound & enzyme incubation, each reaction was initiated by the addition of 2.5 μL 1× kinase buffer containing 8 μM biotinylated “A5” peptide (Biotin-EQEDEPEGDYFEWLE-NH2) (SEQ. ID. NO.: 1), and 100 μM ATP. The final reaction in each well of 10 μL consists of 50 pM hBTK, 2 μM biotin-A5-peptide, and 25 μM ATP. Phosphorylation reactions were allowed to proceed for 120 minutes. Reactions were immediately quenched by the addition of 20 uL of 1× quench buffer (15 mM EDTA, 25 mM Hepes 7.3, and 0.1% Triton X-100) containing detection reagents (0.626 nM of LANCE-Eu-W1024-anti-phosphoTyrosine antibody, PerkinElmer and 86.8 nM of Streptavidin-conjugated Dylight 650, Dyomics/ThermoFisher Scientific). After 60 minutes incubation with detection reagents, reaction plates were read on a PerkinElmer EnVision plate reader using standard TR-FRET protocol. Briefly, excitation of donor molecules (Eu-chelate:anti-phospho-antibody) with a laser light source at 337 nm produces energy that can be transferred to Dylight-650 acceptor molecules if this donor:acceptor pair is within close proximity. Fluorescence intensity at both 665 nm (acceptor) and 615 nm (donor) are measured and a TR-FRET ratio calculated for each well (acceptor intensity/donor intensity). IC50 values were determined by 4 parameter robust fit of TR-FRET ratio values vs. (Log10) compound concentrations.
`CCOc1cc(C(=O)Nc2cc(C(F)(F)F)ccn2)ccc1-c1nc(C2(CC)CCC3CCN(CC)C(=O)N3C2)n2ccnc(N)c12` (single isomer, unassigned) [Example 5, 4-[8-amino-3-(2,7-diethyl-1-oxooctahydro-1H-pyrido[1,2-c]pyrimidin-7-yl)imidazo[1,5-a]pyrazin-1-yl]-3-ethoxy-N-[4-(trifluoromethyl)pyridin-2-yl] benzamide] showed an IC50 of 1000 nM. `CCOc1cc(C(=O)Nc2cc(C(F)(F)F)ccn2)ccc1-c1nc(C2(CC)CCC3CCN(CC)C(=O)N3C2)n2ccnc(N)c12` (single isomer, unassigned) [Example 6, 4-[8-amino-3-(2,7-diethyl-1-oxooctahydro-1H-pyrido[1,2-c]pyrimidin-7-yl)imidazo[1,5-a]pyrazin-1-yl]-3-ethoxy-N-[4-(trifluoromethyl)pyridin-2-yl] benzamide] was tested, and the IC50 was 215 nM. With `CCOc1cc(C(=O)Nc2cc(C(F)(F)F)ccn2)ccc1-c1nc([C@@]2(C)CC[C@@H]3COC(=O)N3C2)n2ccnc(N)c12` [Example 1, 4-(8-amino-3-((6S,8aR)-6-methyl-3-oxohexahydro-1H-oxazolo[3,4-a]pyridin-6-yl)imidazo[1,5-a]pyrazin-1-yl)-3-ethoxy-N-(4-(trifluoromethyl)pyridin-2-yl)benzamide] the IC50 was 0.61 nM. `CCOc1cc(C(=O)Nc2cc(C(F)(F)F)n(C)n2)ccc1-c1nc([C@@]2(C)CC[C@@H]3COC(=O)N3C2)n2ccnc(N)c12` [Example 2, 4-(8-amino-3-((6S,8aR)-6-methyl-3-oxohexahydro-1H-oxazolo[3,4-a]pyridin-6-yl)imidazo[1,5-a]pyrazin-1-yl)-3-ethoxy-N-(1-methyl-5-(trifluoromethyl)-1H-pyrazol-3-yl)benzamide] gave an IC50 of 3.07 nM. In the case of `CCOc1cc(C(=O)Nc2cc(C(F)(F)F)ccn2)ccc1-c1nc([C@@]2(C)CC[C@@H]3CN(C(C)C)CC(=O)N3C2)n2ccnc(N)c12` [Example 3, 4-(8-amino-3-((7S,9aR)-2-isopropyl-7-methyl-4-oxooctahydro-1H-pyrido[1,2-a]pyrazin-7-yl)imidazo[1,5-a]pyrazin-1-yl)-3-ethoxy-N-(4-(trifluoromethyl)pyridin-2-yl)benzamide bis(2,2,2-trifluoroacetate)], the IC50 is reported as 0.61 nM. `CCOc1cc(C(=O)Nc2cc(C(F)(F)F)n(C)n2)ccc1-c1nc([C@@]2(C)CC[C@@H]3CN(C(C)C)CC(=O)N3C2)n2ccnc(N)c12` [Example 4, 4-(8-amino-3-((7S,9aR)-2-isopropyl-7-methyl-4-oxooctahydro-1H-pyrido[1,2-a]pyrazin-7-yl)imidazo[1,5-a]pyrazin-1-yl)-3-ethoxy-N-(1-methyl-5-(trifluoromethyl)-1H-pyrazol-3-yl)benzamide bis(2,2,2-trifluoroacetate)] showed an IC50 of 2.5 nM. For `CCOc1cc(C(=O)Nc2cc(C(F)(F)F)ccn2)ccc1-c1nc([C@]2(C)CC[C@H]3COC(=O)N3C2)n2ccnc(N)c12` [Example 7], the IC50 was 0.59 nM. `CCOc1cc(C(=O)Nc2cc(C(F)(F)F)n(C)n2)ccc1-c1nc([C@]2(C)CC[C@H]3COC(=O)N3C2)n2ccnc(N)c12` [Example 8, 4-{8-amino-3-[(6R,8aS)-6-methyl-3-oxohexahydro[1,3]oxazolo[3,4-a]pyridin-6-yl]imidazo[1,5-a]pyrazin-1-yl}-3-ethoxy-N-[1-methyl-5-(trifluoromethyl)-1H-pyrazol-3-yl]benzamide] was tested, and the IC50 was 0.7 nM. For `C[C@@]1(c2nc(-c3ccc(C(=O)Nc4cc(C(F)(F)F)ccn4)cc3F)c3c(N)nccn23)CC[C@H]2COC(=O)N2C1` [Example 9, 4-{8-amino-3-[(6R,8aS)-6-methyl-3-oxohexahydro[1,3]oxazolo[3,4-a]pyridin-6-yl]imidazo[1,5-a]pyrazin-1-yl}-3-fluoro-N-[4-(trifluoromethyl)pyridin-2-yl] benzamide], the IC50 was 0.22 nM. Work on `C[C@@]1(c2nc(-c3ccc(C(=O)Nc4cc(C5CC5)ccn4)cc3F)c3c(N)nccn23)CC[C@H]2COC(=O)N2C1` [Example 10, 4-{8-amino-3-[(6R,8aS)-6-methyl-3-oxohexahydro[1,3]oxazolo[3,4-a]pyridin-6-yl]imidazo[1,5-a]pyrazin-1-yl}-N-(4-cyclopropylpyridin-2-yl)-3-fluorobenzamide] yielded an IC50 of 0.18 nM. `CCOc1cc(C(=O)Nc2cc(C(F)(F)F)ccn2)cc(F)c1-c1nc([C@]2(C)CC[C@H]3COC(=O)N3C2)n2ccnc(N)c12` [Example 11, 4-{8-amino-3-[(6R,8aS)-6-methyl-3-oxohexahydro[1,3]oxazolo[3,4-a]pyridin-6-yl]imidazo[1,5-a]pyrazin-1-yl}-3-ethoxy-5-fluoro-N-[4-(trifluoromethyl)pyridin-2-yl] benzamide] gave an IC50 of 0.59 nM. Compound `CCOc1cc(C(=O)Nc2cc(C(F)(F)F)ccn2)ccc1-c1nc(C2(C)CCC3CCN(C)C(=O)N3C2)n2ccnc(N)c12` (stereo not shown) [Example 12, 4-[8-amino-3-(2,7-dimethyl-1-oxooctahydro-1H-pyrido[1,2-c]pyrimidin-7-yl)imidazo[1,5-a]pyrazin-1-yl}-3-ethoxy-N-[4-(trifluoromethyl)pyridin-2-yl] benzamide] has an IC50 of 411 nM. With `CCOc1cc(C(=O)Nc2cc(C(F)(F)F)ccn2)ccc1-c1nc(C2(C)CCC3CCN(C)C(=O)N3C2)n2ccnc(N)c12` (stereo not shown) [Example 13, 4-[8-amino-3-(2,7-dimethyl-1-oxooctahydro-1H-pyrido[1,2-c]pyrimidin-7-yl)imidazo[1,5-a]pyrazin-1-yl]-3-ethoxy-N-[4-(trifluoromethyl)pyridin-2-yl] benzamide] the IC50 was 10 nM. In the case of `CCOc1cc(C(=O)Nc2cc(C(F)(F)F)ccn2)ccc1-c1nc([C@]2(C)CC[C@H]3CN(C(C)C)CC(=O)N3C2)n2ccnc(N)c12` [Example 14, 4-{8-amino-3-[(7R,9aS)-7-methyl-2-(1-methylethyl)-4-oxooctahydro-2H-pyrido[1,2-a]pyrazin-7-yl]imidazo[1,5-a]pyrazin-1-yl}-3-ethoxy-N-[4-(trifluoromethyl)pyridin-2-yl] benzamide], the IC50 is reported as 0.42 nM. `CCOc1cc(C(=O)Nc2cc(C(F)(F)F)n(C)n2)ccc1-c1nc([C@]2(C)CC[C@H]3CN(C(C)C)CC(=O)N3C2)n2ccnc(N)c12` [Example 15, 4-{8-amino-3-[(7R,9aS)-7-methyl-2-(1-methylethyl)-4-oxooctahydro-2H-pyrido[1,2-a]pyrazin-7-yl]imidazo[1,5-a]pyrazin-1-yl}-3-ethoxy-N-[1-methyl-5-(trifluoromethyl)-1H-pyrazol-3-yl]benzamide] was tested, and the IC50 was 1.27 nM. For `CCOc1cc(C(=O)Nc2cc(C(F)(F)F)n(C)n2)c(Cl)cc1-c1nc([C@]2(C)CC[C@H]3CN(C(C)C)CC(=O)N3C2)n2ccnc(N)c12` [Example 16, 4-{8-amino-3-[(7R,9aS)-7-methyl-2-(1-methylethyl)-4-oxooctahydro-2H-pyrido[1,2-a]pyrazin-7-yl]imidazo[1,5-a]pyrazin-1-yl}-2-chloro-5-ethoxy-N-[1-methyl-5-(trifluoromethyl)-1H-pyrazol-3-yl] benzamide], the IC50 was 3.41 nM. `C[C@@]1(c2nc(-c3ccc(C(=O)Nc4cc(C(F)(F)F)ccn4)cc3)c3c(N)nccn23)CC[C@H]2CCC(=O)N2C1` [Example 17, 4-(8-amino-3-((6R,8aS)-6-methyl-3-oxooctahydroindolizin-6-yl)imidazo[1,5-a]pyrazin-1-yl)-N-(4-(trifluoromethyl)pyridin-2-yl)benzamide] gave an IC50 of 0.18 nM. Work on `CCOc1cc(C(=O)Nc2cc(C(F)(F)F)ccn2)ccc1-c1nc([C@]2(C)CC[C@H]3CCC(=O)N3C2)n2ccnc(N)c12` [Example 18, 4-(8-amino-3-((6R,8aS)-6-methyl-3-oxooctahydroindolizin-6-yl)imidazo[1,5-a]pyrazin-1-yl)-3-ethoxy-N-(4-(trifluoromethyl)pyridin-2-yl)benzamide] yielded an IC50 of 0.44 nM. `COc1cc(C(=O)Nc2cc(C(F)(F)F)ccn2)ccc1-c1nc([C@]2(C)CC[C@H]3CCC(=O)N3C2)n2ccnc(N)c12` [Example 19, 4-(8-amino-3-((6R,8aS)-6-methyl-3-oxooctahydroindolizin-6-yl)imidazo[1,5-a]pyrazin-1-yl)-3-methoxy-N-(4-(trifluoromethyl)pyridin-2-yl)benzamide] gave an IC50 of 0.33 nM.
